Experimental data from patent US5834433A, “Compounds and pharmaceutical uses of peptides of bombesin and GRP” (Merrell Pharmaceuticals Inc., priority 1996, dated 1998).
Non-standard residues stand in square brackets, D forms with d. Residues, ends and D or L forms follow the SMILES beside them. *: point of attachment. Palmitoyl = CCCCCCCCCCCCCCCC(=O)*; Lauroyl = CCCCCCCCCCCC(=O)*; Octanoyl = CCCCCCCC(=O)*

Biological target: T1, bombesin receptor (Mus musculus, UniProt P21729)
T1 construct: The pancreata from one or more mice were pooled, minced, and homogenized; from tissue; host or cells: mouse pancreas (membrane pellet in A1; chopped tissue in A2)
Assay: Competition at the bombesin receptor for iodinated GRP (125I-GRP), mouse pancreas membranes
Set-up: species or system mice
Conditions: 125I-GRP competition, read-out: Binding KD
Procedure: The pancreata from one or more mice were pooled, minced, and homogenized in 50 mM HEPES (pH 7.4) containing 120 mM NaCl and 5 mM KC1 at 4° C. and centrifuged at 37,500 ×g for 15 minutes. The pellet was resuspended in 50 mM HEPES (pH 7.4) containing 10 mM EDTA and 300 mM KC1 and incubated for 30 minutes at 4° C. The suspension was centrifuged as above and the pellet was washed two times in 50 mM HEPES (pH 7.4) containing protease inhibitors (10 uM phenylmethylsulfonyl fluoride, 1 uM thiorphan, 40 ug/ml bacitracin, 10 mM iodoacetimide and 4 ug/ml leupeptin), and again centrifuged. The tissue was then resuspended in incubation buffer (1 ml per 4 mg pancreas) and incubated for 15 minutes at room temperature, then 250 ul was added to each assay tube to commence the assay. The assay tubes contained incubation buffer consisting of 50 mM HEPES (pH 7.4), 0.5% BSA, protease inhibitors, 2 mM MnCl2, 1 uM somatostatin, and concentrations of ^125 I-GRP and peptides as needed in a final volume of 500 ul. The assay was allowed to proceed to equilibrium for 90 minutes at room temperature. After this time, the contents of each tube was rapidly filtered over Whatman GF/B filters presoaked in 0.1% polyethyleneimine and the filters were rapidly washed three times with ice-cold 50 mM HEPES (pH 7.4). Filter-bound radioactivity was quantitated in a gamma counter. Competition of iodinated GRP binding by test compounds or standards was expressed as a percentage of ^125 I-GRP binding in the absence of peptide. Affinity and maximal binding were calculated with Ligand (Biosoft, Cambridge, UK).

T1 sequence (P21729 whole entry): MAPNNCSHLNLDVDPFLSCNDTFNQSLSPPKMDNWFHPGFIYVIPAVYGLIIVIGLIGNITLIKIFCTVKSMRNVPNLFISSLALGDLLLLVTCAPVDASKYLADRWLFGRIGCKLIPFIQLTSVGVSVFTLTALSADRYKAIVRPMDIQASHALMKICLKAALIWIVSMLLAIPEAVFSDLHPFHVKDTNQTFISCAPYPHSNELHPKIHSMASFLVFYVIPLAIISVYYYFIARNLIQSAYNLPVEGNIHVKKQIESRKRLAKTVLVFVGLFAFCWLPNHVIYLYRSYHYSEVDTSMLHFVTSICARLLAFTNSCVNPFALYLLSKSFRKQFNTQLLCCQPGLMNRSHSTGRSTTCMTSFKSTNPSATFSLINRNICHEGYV

Kd	SMILES
5 nM	CCCCCCCC(=O)N[C@@H](CCC(N)=O)C(=O)N[C@@H](Cc1c[nH]c2ccccc12)C(=O)N[C@@H](C)C(=O)N[C@H](C(=O)N[C@H](C)C(=O)N[C@@H](Cc1c[nH]cn1)C(=O)N[C@@H](CC(C)C)C(N)=O)C(C)C [Example 1, N-(n-Octanoyl)-Gln-Trp-Ala-Val-ala-His-Leu-NH2] (Octanoyl-QWAV[dA]HL-NH2)
320 nM	CCCCCCCCCCCC(=O)N[C@@H](CCC(N)=O)C(=O)N[C@@H](Cc1c[nH]c2ccccc12)C(=O)N[C@@H](C)C(=O)N[C@H](C(=O)N[C@H](C)C(=O)N[C@@H](Cc1c[nH]cn1)C(=O)N[C@@H](CC(C)C)C(N)=O)C(C)C [Example 2, N-(Lauroyl)-Gln-Trp-Ala-Val-ala-His-Leu-NH2] (Lauroyl-QWAV[dA]HL-NH2)
350 nM	CCCCCCCCCCCCCCCC(=O)N[C@@H](CCC(N)=O)C(=O)N[C@@H](Cc1c[nH]c2ccccc12)C(=O)N[C@@H](C)C(=O)N[C@H](C(=O)N[C@H](C)C(=O)N[C@@H](Cc1c[nH]cn1)C(=O)N[C@@H](CC(C)C)C(N)=O)C(C)C [Example 3, N-(Palmitoyl)-Gln-Trp-Ala-Val-ala-His-Leu-NH2] (Palmitoyl-QWAV[dA]HL-NH2)
58 nM	CCCCCCCC(=O)N[C@@H](CCC(N)=O)C(=O)N[C@@H](Cc1c[nH]c2ccccc12)C(=O)N[C@@H](C)C(=O)N[C@H](C(=O)N[C@H](C)C(=O)N[C@@H](Cc1c[nH]cn1)C(N)=O)C(C)C [Example 4, N-(n-Octanoyl)-Gln-Trp-Ala-Val-ala-His-NH2] (Octanoyl-QWAV[dA]H-NH2)
1500 nM	CC(=O)N[C@@H](CCC(N)=O)C(=O)N[C@@H](Cc1c[nH]c2ccccc12)C(=O)N[C@@H](C)C(=O)N[C@H](C(=O)N[C@H](C)C(=O)N[C@@H](Cc1c[nH]cn1)C(N)=O)C(C)C [Nα-AcetylQ W A V a H #] (Ac-QWAV[dA]H-NH2)
69 nM	CC(=O)N[C@@H](CCC(N)=O)C(=O)N[C@@H](Cc1c[nH]c2ccccc12)C(=O)N[C@@H](C)C(=O)N[C@H](C(=O)N[C@H](C)C(=O)N[C@@H](Cc1c[nH]cn1)C(=O)N[C@@H](CC(C)C)C(N)=O)C(C)C [Nα-AcetylQ W A V a H L #] (Ac-QWAV[dA]HL-NH2)
> 10000 nM	CC(=O)N[C@@H](Cc1c[nH]c2ccccc12)C(=O)N[C@@H](C)C(=O)N[C@H](C(=O)N[C@H](C)C(=O)N[C@@H](Cc1c[nH]cn1)C(N)=O)C(C)C [Nα-AcetylW A V a H #] (Ac-WAV[dA]H-NH2)
> 10000 nM	CCCCCCCCCCCC(=O)N[C@@H](CCC(N)=O)C(=O)N[C@@H](Cc1c[nH]c2ccccc12)C(=O)N[C@@H](C)C(=O)N[C@H](C(=O)N[C@H](C)C(=O)N[C@@H](Cc1c[nH]cn1)C(N)=O)C(C)C [Nα-LaurylQ W A V a H #] (Lauroyl-QWAV[dA]H-NH2)
> 10000 nM	CCCCCCCCCCCC(=O)N[C@@H](Cc1c[nH]c2ccccc12)C(=O)N[C@@H](C)C(=O)N[C@H](C(=O)N[C@H](C)C(=O)N[C@@H](Cc1c[nH]cn1)C(N)=O)C(C)C [Nα-LaurylW A V a H #] (Lauroyl-WAV[dA]H-NH2)
> 10000 nM	CCCCCCCC(=O)N[C@@H](Cc1c[nH]c2ccccc12)C(=O)N[C@@H](C)C(=O)N[C@H](C(=O)N[C@H](C)C(=O)N[C@@H](Cc1c[nH]cn1)C(N)=O)C(C)C [Nα-OctylW A V a H #] (Octanoyl-WAV[dA]H-NH2)
> 10000 nM	CCCCCCCCCCCCCCCC(=O)N[C@@H](CCC(N)=O)C(=O)N[C@@H](Cc1c[nH]c2ccccc12)C(=O)N[C@@H](C)C(=O)N[C@H](C(=O)N[C@H](C)C(=O)N[C@@H](Cc1c[nH]cn1)C(N)=O)C(C)C [Nα-PalmitylQ W A V a H #] (Palmitoyl-QWAV[dA]H-NH2)
> 10000 nM	CCCCCCCCCCCCCCCC(=O)N[C@@H](Cc1c[nH]c2ccccc12)C(=O)N[C@@H](C)C(=O)N[C@H](C(=O)N[C@H](C)C(=O)N[C@@H](Cc1c[nH]cn1)C(N)=O)C(C)C [Nα-PalmitylW A V a H #] (Palmitoyl-WAV[dA]H-NH2)
